One data set concerns the target T1, human GPR119 (Homo sapiens, UniProt Q8TDV5).
T1 construct: expressed in transfected cells; host or cells: HEK293 (transient transfection, Lipofectamine 2000)
T1 sequence (Q8TDV5 1-335): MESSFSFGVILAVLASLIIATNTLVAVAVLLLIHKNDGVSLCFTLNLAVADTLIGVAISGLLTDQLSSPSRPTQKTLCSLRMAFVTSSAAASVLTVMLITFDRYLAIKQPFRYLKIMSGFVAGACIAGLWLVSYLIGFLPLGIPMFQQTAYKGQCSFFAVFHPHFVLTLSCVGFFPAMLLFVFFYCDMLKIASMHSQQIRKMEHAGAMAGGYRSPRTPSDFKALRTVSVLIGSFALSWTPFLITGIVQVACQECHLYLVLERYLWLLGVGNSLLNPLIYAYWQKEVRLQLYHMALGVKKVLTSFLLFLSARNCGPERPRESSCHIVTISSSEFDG
Put plainly: In vitro cyclic AMP assay (Cisbio HTRF) in HEK293 cells transfected with human GPR119. Type of data set: cell-based. The settings on record: cAMP; for activation at 10 µM: 1 h, % Induction @ 10 μM; for EC50: Emax varies between 65 to 80%. An outline of the steps:
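HEK293 cells transiently transfected with human GPR119 plasmid (or empty vector), replated 24 h later and exposed to compounds for 60 min at room temperature. cAMP measured by HTRF (cAMP-d2/cryptate, 665/620 nm ratio) after 1 h lysis; EC50 from concentration-response curves, also % induction at 10 μM.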

A further data set deals with C57Bl/6J mice. Put plainly: Oral glucose tolerance test (OGTT) in C57Bl/6J mice. The data set is classed as in vivo. The following applies: single oral dose 1 h before 2.0 g/kg oral glucose, sitagliptin 10 mg/kg, vs vehicle. Here is the method: FIG. 1 is a graph of blood glucose over time in C57BI/6J mice according to the oral glucose tolerance test (Biological Assay Procedure E) before and after oral administration of vehicle (control), compound A (Example 64@ 30 mg/kg), or sitagliptin (10 mg/kg @ 10 mg/kg).
FIG. 2 is a graph of blood glucose over time in C57BI/6J mice according to the oral glucose tolerance test (Biological Assay Procedure E) before and after oral administration of vehicle (control), compound […] (Example 42 @ 10 mg/kg), or sitagliptin (10 mg/kg @ 10 mg/kg).
E: Oral Glucose Tolerance Test (OGTT) in C57Bl/6J Mice:
After the quarantine period, 6 hr fasted animals were randomized and divided into various groups depending on their blood glucose levels. Test compounds or standard drug (sitagliptin) was prepared as a suspension in a vehicle consisting of 0.5% methylcellulose and Tween 80 as a suspending agent. The standard drug, Compound A (example-64), Compound B (example-42) or vehicle were administered by oral gavage in a volume of 10 mL/kg. 1 h after the test compounds, standard drug and vehicle administration, blood was sampled from the tail vein of mice at time 0 min (baseline) and at 30, 60, 90 and 120 min after an oral glucose load of 2.0 g/kg of body weight. Food, but not water, was withheld from the cages during the course of experiment. The area under curve (AUC) of experimental animals was compared with that of vehicle-treated control group. The results are shown in FIGS. 1 and 2 and are discussed below.

[1] abbreviates: FIG. 2 study, Compound B 10 mg/kg.
Where [2] appears, read: FIG. 1 study, Compound A 30 mg/kg.

The values that follow come from US9181214B2 (RHIZEN PHARMACEUTICALS SA, priority 2011, dated 2015).

Consider `CC(C)OC(=O)N1CCC(c2nc3cc(-c4ccc(C(N)=O)cc4F)ccc3o2)CC1` [EXAMPLE-37, Isopropyl 4-[5-(4-carbamoyl-2-fluorophenyl)benzo[d]oxazol-2-yl]piperidine-1-carboxylate], for which the melting point lay within 194 to 197 °C. At human GPR119 (Table I), this molecule yielded an activation at 10 µM of 6.56%.

Molecule `CC(C)OC(=O)N1CCC(c2nc3cc(-c4ccc(C(N)=O)cc4Cl)ccc3o2)CC1` [EXAMPLE-38, Isopropyl 4-[5-(4-carbamoyl-2-chlorophenyl)benzo[d]oxazol-2-yl]piperidine-1-carboxylate] had a melting point of 178 to 182 °C. This molecule also registered an activation at 10 µM on human GPR119 (Table I) of 16.6%.

Turning to `CC(C)CC(=O)N1CCC(c2nc3cc(-c4ccc(C(N)=O)c(F)c4)ccc3o2)CC1` [EXAMPLE-39, 2-Fluoro-4-{2-[1-(3-methylbutanoyl)piperidin-4-yl]benzo[d]oxazol-5-yl}benzamide], the melting point was 186 to 190 °C. For the same molecule, the activation at 10 µM at human GPR119 (Table I) worked out at 27.5%.

In the case of `CC(C)CC(=O)N1CCC(c2nc3cc(-c4ccc(-n5cnnn5)cc4F)ccc3o2)CC1` [EXAMPLE-40, 1-{4-[5-(2-fluoro-4-(1H-tetrazol-1-yl)phenyl]benzo[d]oxazol-2-yl]piperidin-1-yl}-3-methylbutan-1-one], the melting point is 168 to 172 °C. For the same molecule, on human GPR119 (Table I), the activation at 10 µM was 21.9%.

`CNC(=O)c1ccc(-c2ccc3oc(C4CCN(C(=O)OC(C)C)CC4)nc3c2)cc1F` [EXAMPLE-42, Isopropyl 4-{5-[3-fluoro-4-(methylcarbamoyl)phenyl]benzo[d]oxazol-2-yl}piperidine-1-carboxylate] returned a melting point of 116 to 120 °C. Moreover, at human GPR119 (Table I), the activation at 10 µM worked out at 78.4% and the EC50 is 25 to 50 nM. Further, the “lowered AUCglucose” value in the data set on C57Bl/6J mice (setting [1]) is on record as 22%.

As for `CC(C)C(=O)N1CCC(c2nc3cc(-c4ccc(C(N)=O)c(F)c4)ccc3o2)CC1` [EXAMPLE-43, 2-Fluoro-4-[2-(1-isobutyrylpiperidin-4-yl)benzo[d]oxazol-5-yl]benzamide], the melting point fell in the range of 193 to 196 °C. The molecule further yielded an activation at 10 µM on human GPR119 (Table I) of 48.8%.

As for `CC(C)OC(=O)N1CCC(c2nc3ccc(-c4ccc(C(N)=O)c(F)c4)cc3o2)CC1` [EXAMPLE-44, Isopropyl 4-[6-(4-carbamoyl-3-fluorophenyl)benzo[d]oxazol-2-yl]piperidine-1-carboxylate], the melting point was 178 to 181 °C. Also, at human GPR119 (Table I), the activation at 10 µM worked out at 64.8% and the EC50 fell in the range of 25 to 50 nM.

For `CC(C)OC(=O)N1CCC(c2nc3cc(-c4ccc(C(=O)NCCO)c(F)c4)ccc3o2)CC1` [EXAMPLE-45, Isopropyl 4-{5-[3-fluoro-4-(2-hydroxyethylcarbamoyl)phenyl]benzo[d]oxazol-2-yl}piperidine-1-carboxylate], the melting point was 145 to 147 °C. Further, the activation at 10 µM on human GPR119 (Table I) stood at 56.4%.

In the case of `CC(C)NC(=O)c1ccc(-c2ccc3oc(C4CCN(C(=O)OC(C)C)CC4)nc3c2)cc1F` [EXAMPLE-46, Isopropyl 4-{5-[3-fluoro-4-(isopropylcarbamoyl)phenyl]benzo[d]oxazol-2-yl}piperidine-1-carboxylate], the melting point lay within 147 to 150 °C. This molecule yielded an activation at 10 µM on human GPR119 (Table I) of 53%.

In turn, `CNS(=O)(=O)c1ccc(-c2ccc3oc(C4CCN(C(=O)OC(C)C)CC4)nc3c2)cc1` [EXAMPLE-47, Isopropyl 4-{5-[4-(N-methylsulfamoyl)phenyl]benzo[d]oxazol-2-yl}piperidine-1-carboxylate] gave a melting point of 179 to 181 °C. Further, the activation at 10 µM at human GPR119 (Table I) is 33.1%.

For `CNC(=O)c1ccc(-c2ccc3oc(C4CCN(C(=O)OC(C)C)CC4)nc3c2)cn1` [EXAMPLE-48, Isopropyl 4-{5-[6-(methylcarbamoyl)pyridin-3-yl]benzo[d]oxazol-2-yl}piperidine-1-carboxylate], the melting point fell in the range of 158 to 161 °C. At human GPR119 (Table I), this molecule registered an activation at 10 µM of 26.7%.

`CNC(=O)c1ccc(-c2ccc3oc(C4CCN(C(=O)OC(C)C)CC4)nc3c2)cc1C` [EXAMPLE-49, Isopropyl 4-{5-[3-methyl-4-(methylcarbamoyl)phenyl]benzo[d]oxazol-2-yl}piperidine-1-carboxylate] came in with a melting point of 151 to 154 °C. Also, the activation at 10 µM on human GPR119 (Table I) stood at 32.9%.

As to `CC(C)OC(=O)N1CCC(c2nc3cc(-c4ccc(C(=O)NC5CC5)c(F)c4)ccc3o2)CC1` [EXAMPLE-50, Isopropyl 4-{5-[4-(cyclopropylcarbamoyl)-3-fluorophenyl]benzo[d]oxazol-2-yl}piperidine-1-carboxylate], the melting point lay within 162 to 165 °C. The activation at 10 µM on human GPR119 (Table I) was found to be 38.7%.

`NC(=O)c1ccc(-c2ccc3oc(C4CCN(c5ncc(F)cn5)CC4)nc3c2)cc1F` [EXAMPLE-51, 2-Fluoro-4-{2-[1-(5-fluoropyrimidin-2-yl)piperidin-4-yl]benzo[d]oxazol-5-yl}benzamide] displayed a melting point of 226 to 229 °C. This molecule also gave an activation at 10 µM at human GPR119 (Table I) of 38.7%.

On human GPR119 (Table II), `CC(C)OC(=O)N1CCC(c2ccc3oc(-c4ccc(S(C)(=O)=O)cc4F)nc3c2)CC1` [EXAMPLE-64, Isopropyl 4-{2-[2-fluoro-4-(methylsulfonyl)phenyl]benzo[d]oxazol-5-yl}piperidine-1-carboxylate] returned an activation at 10 µM of 75% and an EC50 of at most 25 nM. The “lowered AUCglucose” value in the data set with C57Bl/6J mice (setting [2]) was determined as 24%.

Consider `CS(=O)(=O)c1ccc(-c2nc3cc(C4CCN(c5ncc(F)cn5)CC4)ccc3o2)c(F)c1` [EXAMPLE-81], for which the melting point was 220 to 222 °C. The activation at 10 µM at human GPR119 (Table II) was 43%.

For `CC(C)(C)OC(=O)N1CCC(c2ccc3nc(-c4ccc(C(F)(F)F)cc4)oc3c2)CC1` [EXAMPLE-84, Tert-butyl 4-{2-[4-(trifluoromethyl)phenyl]benzo[d]oxazol-6-yl}piperidine-1-carboxylate], the melting point is 174 to 179 °C. At human GPR119 (Table II), this molecule yielded an activation at 10 µM of 13.2%.

With `N[C@@H](CC(=O)N1CCn2c(nnc2C(F)(F)F)C1)Cc1cc(F)c(F)cc1F` [Sitagliptin, sitagliptin, reference compound], the “lowered AUCglucose” value in the data set with C57Bl/6J mice (setting [2]) is given as 59%; with C57Bl/6J mice (setting [1]) it was 50%.
